According to ChEMBL document CHEMBL3864173, “Design and Synthesis of Novel Macrocyclic Mer Tyrosine Kinase Inhibitors” (ACS Med Chem Lett, 2016):

Assay: Solubility of the compound at pH 7.4
Assay type: physicochemical
Conditions: buffer

solubility: 47 mg/mL
Compound: CCCCNc1ncc2c(-c3ccc(CN4CCN(C)CC4)cc3)cn([C@H]3CC[C@H](O)CC3)c2n1.Cl
